Experimental data: patent US9452990B2, “Complement pathway modulators and uses thereof” (NOVARTIS AG, priority 2012, dated 2016)

molecular target: human complement factor B (CVF-Bb complex) (Homo sapiens (Human), UniProt P00751); test: Human Complement Factor B ELISA Assay; format: biochemical; details: CVF-Bb complex 3 nM, 1 hour preincubation with compound at room temperature, human C3 substrate 1 μM, C3a quantified by ELISA; read-out: Factor B IC50
Summary of the method: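 Preformed CVF-Bb complex (3 nM; cobra venom factor with recombinant human factors B and D) preincubated with compound 1 h, RT, in PBS pH 7.4, 10 mM MgCl2, 0.05% CHAPS. Plasma C3 added at 1 μM final for 1 h, then stopped; C3a product measured by ELISA, IC50 from % inhibition.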

In order of falling IC50:
1. COc1cc2c(N)nc(N3CCN(C(=O)C[C@@H](CN)c4ccccc4)CC3)nc2c(F)c1OC [Example 129, (R)-4-Amino-1-[4-(4-amino-8-fluoro-6,7-dimethoxy-quinazolin-2-yl)-piperazin-1-yl]-3-phenyl-butan-1-one]  710 nM
2. COc1cc2c(N)nc(N3CCN(C(=O)C[C@@H](C(N)=O)c4ccc(F)cc4)CC3)nc2c(F)c1OC [Example 130, (R)-4-[4-(4-Amino-8-fluoro-6,7-dimethoxy-quinazolin-2-yl)-piperazin-1-yl]-2-(4-fluoro-phenyl)-4-oxo-butyramide]  10 nM
3. [2H]C([2H])([2H])C([2H])([2H])N[C@H](CC(=O)N1CCN(c2nc(N)c3cc(OC)c(OC)c(F)c3n2)CC1)c1ccc(F)cc1 [Example 131, (R)-1-(4-(4-amino-8-fluoro-6,7-dimethoxyquinazolin-2-yl)piperazin-1-yl)-3-(1,1,2,2,2-d^5 ethylamino)-3-(4-fluorophenyl)propan-1-one]  3 nM
